Active and inactive are the calls of the source. The calls are words filed in the database; no cut-off is given here.
Assays:
HeLa [1] = test: Cell cycle arrest in human HeLa cells assessed as accumulation at G2/M phase at 0.4 uM after 12 hrs by propidium iodide staining based flow cytometry (reference value: 2.15%); type: functional
HeLa [2] = test: Cell cycle arrest in human HeLa cells assessed as accumulation at G2/M phase at 0.1 uM after 24 hrs by propidium iodide staining based flow cytometry (reference value: 2.15%); type: functional
HeLa [3] = test: Cell cycle arrest in human HeLa cells assessed as accumulation at G2/M phase at 0.5 uM after 12 hrs by propidium iodide staining based flow cytometry (reference value: 8.14%); type: functional
HeLa [4] = test: Cell cycle arrest in human HeLa cells assessed as accumulation at S phase at 0.5 uM after 36 hrs by propidium iodide staining based flow cytometry (reference value: 33.78%); type: functional
HeLa [5] = test: Cell cycle arrest in human HeLa cells assessed as accumulation at S phase at 0.5 uM after 24 hrs by propidium iodide staining based flow cytometry (reference value: 33.78%); type: functional
HeLa [6] = test: Cell cycle arrest in human HeLa cells assessed as accumulation at S phase at 0.1 uM after 24 hrs by propidium iodide staining based flow cytometry (reference value: 49.41%); type: functional
HeLa [7] = test: Induction of apoptosis in human HeLa cells assessed as necrotic cells at 0.5 uM after 24 hrs by Annexin-V-FITC/propidium iodide staining based flow cytometry (reference value: 0.35%); type: functional
HeLa [8] = test: Cell cycle arrest in human HeLa cells assessed as accumulation at G2/M phase at 0.8 uM after 12 hrs by propidium iodide staining based flow cytometry (reference value: 2.15%); type: functional
HeLa [9] = test: Induction of apoptosis in human HeLa cells assessed as viable cells at 0.8 uM after 24 hrs by Annexin-V-FITC/propidium iodide staining based flow cytometry (reference value: 94.4%); type: functional; conditions: read-out: Activity
HeLa [10] = test: Cell cycle arrest in human HeLa cells assessed as accumulation at S phase at 0.2 uM after 12 hrs by propidium iodide staining based flow cytometry (reference value: 49.41%); type: functional
HeLa [11] = test: Cell cycle arrest in human HeLa cells assessed as accumulation at G1 phase at 0.8 uM after 12 hrs by propidium iodide staining based flow cytometry (reference value: 85.81%); type: functional
HeLa [12] = test: Cell cycle arrest in human HeLa cells assessed as accumulation at S phase at 0.5 uM after 12 hrs by propidium iodide staining based flow cytometry (reference value: 33.78%); type: functional
HeLa [13] = test: Cell cycle arrest in human HeLa cells assessed as accumulation at S phase at 0.4 uM after 12 hrs by propidium iodide staining based flow cytometry (reference value: 49.41%); type: functional
HeLa [14] = test: Inhibition of microtubule polymerization in human HeLa cells assessed as appearance of short and curled microtubule fragments at 0.4 uM after 24 hrs by DAPI staining based confocal microscopic analysis; type: cell-based
HeLa [15] = test: Induction of apoptosis in human HeLa cells assessed as viable cells at 0.2 uM after 24 hrs by Annexin-V-FITC/propidium iodide staining based flow cytometry (reference value: 94.4%); type: functional; conditions: read-out: Activity
HeLa [16] = test: Cell cycle arrest in human HeLa cells assessed as accumulation at G1 phase at 0.5 uM after 36 hrs by propidium iodide staining based flow cytometry (reference value: 79.19%); type: functional
HeLa [17] = test: Induction of apoptosis in human HeLa cells assessed as late apoptotic cells at 0.5 uM after 12 hrs by Annexin-V-FITC/propidium iodide staining based flow cytometry (reference value: 2.64%); type: functional
HeLa [18] = test: Induction of apoptosis in human HeLa cells assessed as necrotic cells at 0.4 uM after 24 hrs by Annexin-V-FITC/propidium iodide staining based flow cytometry (reference value: 0.084%); type: functional
HeLa [19] = test: Induction of apoptosis in human HeLa cells assessed as necrotic cells at 0.5 uM after 12 hrs by Annexin-V-FITC/propidium iodide staining based flow cytometry (reference value: 0.35%); type: functional
HeLa [20] = test: Induction of apoptosis in human HeLa cells assessed as late apoptotic cells at 0.4 uM after 24 hrs by Annexin-V-FITC/propidium iodide staining based flow cytometry (reference value: 3.1%); type: functional
HeLa [21] = test: Inhibition of microtubule polymerization in human HeLa cells at 0.2 uM after 24 hrs by DAPI staining based confocal microscopic analysis; type: cell-based
HeLa [22] = test: Induction of apoptosis in human HeLa cells assessed as early apoptotic cells at 0.2 uM after 24 hrs by Annexin-V-FITC/propidium iodide staining based flow cytometry (reference value: 2.41%); type: functional
HeLa [23] = test: Induction of apoptosis in human HeLa cells assessed as viable cells at 0.5 uM after 36 hrs by Annexin-V-FITC/propidium iodide staining based flow cytometry (reference value: 91%); type: functional; conditions: read-out: Activity
HepG2 = test: Antiproliferative activity against human HepG2 cells measured after 24 hrs by MTT assay; type: functional, cell-based; conditions: HepG2, 24 h
HeLa [24] = test: Inhibition of microtubule polymerization in human HeLa cells assessed as effect on microtubule organization at 0.2 uM after 24 hrs by DAPI staining based confocal microscopic analysis; type: cell-based
HeLa [25] = test: Cell cycle arrest in human HeLa cells assessed as accumulation at G1 phase at 0.5 uM after 24 hrs by propidium iodide staining based flow cytometry (reference value: 79.19%); type: functional
HeLa [26] = test: Inhibition of microtubule polymerization in human HeLa cells assessed as abnormal chromatin distribution at 0.2 uM after 24 hrs by DAPI staining based confocal microscopic analysis; type: cell-based
HeLa [27] = test: Induction of apoptosis in human HeLa cells assessed as late apoptotic cells at 0.8 uM after 24 hrs by Annexin-V-FITC/propidium iodide staining based flow cytometry (reference value: 3.1%); type: functional
HeLa [28] = test: Induction of apoptosis in human HeLa cells assessed as necrotic cells at 0.5 uM after 36 hrs by Annexin-V-FITC/propidium iodide staining based flow cytometry (reference value: 0.35%); type: functional
MCF7 = test: Antiproliferative activity against human MCF7 cells measured after 24 hrs by MTT assay; type: functional, cell-based; conditions: MCF7, 24 h
HeLa [29] = test: Cell cycle arrest in human HeLa cells assessed as accumulation at G1 phase at 0.1 uM after 24 hrs by propidium iodide staining based flow cytometry (reference value: 85.81%); type: functional
HeLa [30] = test: Induction of apoptosis in human HeLa cells assessed as early apoptotic cells at 0.5 uM after 12 hrs by Annexin-V-FITC/propidium iodide staining based flow cytometry (reference value: 6.02%); type: functional
HeLa [31] = test: Induction of apoptosis in human HeLa cells assessed as viable cells at 0.5 uM after 24 hrs by Annexin-V-FITC/propidium iodide staining based flow cytometry (reference value: 91%); type: functional; conditions: read-out: Activity
HeLa [32] = test: Induction of apoptosis in human HeLa cells assessed as early apoptotic cells at 0.5 uM after 36 hrs by Annexin-V-FITC/propidium iodide staining based flow cytometry (reference value: 6.02%); type: functional
HeLa [33] = test: Cell cycle arrest in human HeLa cells assessed as accumulation at G1 phase at 0.5 uM after 12 hrs by propidium iodide staining based flow cytometry (reference value: 79.19%); type: functional
HeLa [34] = test: Cell cycle arrest in human HeLa cells assessed as accumulation at G2/M phase at 0.5 uM after 24 hrs by propidium iodide staining based flow cytometry (reference value: 8.14%); type: functional

In the case of `CCn1cc(C(=O)N2CCN(S(=O)(=O)c3c(C(C)C)cc(C(C)C)cc3C(C)C)CC2)c2ccccc21`, the Activity (HeLa [1]) is reported as 51.71%, the Activity (HeLa [2]) is reported as 15.09% and the Activity (HeLa [3]) is reported as 18.43%. For the same molecule, the Activity (HeLa [4]) was 53.25%, the Activity (HeLa [5]) was 55.73% and the Activity (HeLa [6]) was 49.47%. It also gave an Activity (HeLa [7]) of 0.303%, an Activity (HeLa [8]) of 83.61% and a viability at 0.8 µM (HeLa [9]) of 44%. The Activity (HeLa [10]) was 61.18%, the Activity (HeLa [11]) was 10.02% and the Activity (HeLa [12]) was 51.97%. The Activity (HeLa [13]) was 40.08%, the inhibition (HeLa [14]) was “Active” and the viability at 0.2 µM (HeLa [15]) was 71%. The Activity (HeLa [16]) was 1.19%, the Activity (HeLa [17]) was 3.97% and the Activity (HeLa [18]) was 0.581%. For the same molecule, the Activity (HeLa [19]) was 0.03%, the Activity (HeLa [20]) was 12.8% and the inhibition (HeLa [21]) was “Active”. The Activity (HeLa [22]) was 21.7%, the viability at 0.5 µM (HeLa [23]) was 53.1% and the IC50 (HepG2) was 490 nM. The inhibition (HeLa [24]) was “Active”, the Activity (HeLa [25]) was 5.23% and the inhibition (HeLa [26]) was “Active”. It also gave an Activity (HeLa [27]) of 22.4%, an Activity (HeLa [28]) of 0.329% and an IC50 (MCF7) of 350 nM. The Activity (HeLa [29]) was 54.97%, the Activity (HeLa [30]) was 8.12% and the viability at 0.5 µM (HeLa [31]) was 72.7%. The Activity (HeLa [32]) was 25.3%, the Activity (HeLa [33]) was 42.86% and the Activity (HeLa [34]) was 54.57%.
